Assay: xn = mol fraction of the nth substance listed

COc1ccccc1N + ClC(Cl)C(Cl)Cl
viscosity [mPa·s], 100 kPa
Details	x1 = 0.0911	x1 = 0.1962	x1 = 0.2806	x1 = 0.3816	x1 = 0.4976	x1 = 0.6023	x1 = 0.7116	x1 = 0.8104	x1 = 0.9212
303.15 K	1.786	2.165	2.464	2.82	3.224	3.584	3.957	4.291	4.66
308.15 K	1.673	2.029	2.309	2.639	3.013	3.347	3.692	4.001	4.337
313.15 K	1.562	1.895	2.154	2.458	2.802	3.111	3.427	3.709	4.012

COC(C)=O + ClC(Cl)Cl
303.15 K, 101.3 kPa
Details	viscosity [mPa·s]
x1 = 0.1026	0.5228
x1 = 0.2027	0.525
x1 = 0.3012	0.5197
x1 = 0.4009	0.5018
x1 = 0.5028	0.4782
x1 = 0.6033	0.4508
x1 = 0.7158	0.4176
x1 = 0.813	0.3893
x1 = 0.8983	0.3686

COC(C)=O + ClCCCl
303.15 K, 101.3 kPa
Details	viscosity [mPa·s]
x1 = 0.1016	0.6754
x1 = 0.199	0.6342
x1 = 0.2978	0.594
x1 = 0.4014	0.5517
x1 = 0.4966	0.5168
x1 = 0.5959	0.4819
x1 = 0.6976	0.4445
x1 = 0.8973	0.378

COc1ccccc1N + ClCCCl
viscosity [mPa·s], 100 kPa
Details	x1 = 0.0875	x1 = 0.1658	x1 = 0.2536	x1 = 0.3656	x1 = 0.4856	x1 = 0.5902	x1 = 0.6816	x1 = 0.7704	x1 = 0.8841
303.15 K	1.101	1.438	1.814	2.291	2.797	3.235	3.613	3.98	4.448
308.15 K	1.037	1.353	1.704	2.148	2.617	3.022	3.372	3.711	4.139
313.15 K	0.974	1.27	1.596	2.004	2.436	2.808	3.13	3.439	3.829

COCCOC + Clc1ccccc1
298.15 K, 101 kPa
Details	viscosity [mPa·s]
x1 = 0.1219	0.721
x1 = 0.2379	0.685
x1 = 0.3487	0.649
x1 = 0.4543	0.611
x1 = 0.5554	0.573
x1 = 0.652	0.537
x1 = 0.7445	0.503
x1 = 0.8332	0.47
x1 = 0.9183	0.439

COc1ccccc1N + NCCO
viscosity [mPa·s], 100 kPa
Details	x1 = 0.0897	x1 = 0.1649	x1 = 0.2579	x1 = 0.3519	x1 = 0.4497	x1 = 0.5507	x1 = 0.6549	x1 = 0.7626	x1 = 0.8735
303.15 K	13.58	12.87	11.99	11.1	10.18	9.22	8.23	7.2	6.14
308.15 K	11.07	10.54	9.87	9.2	8.5	7.77	7.02	6.24	5.44
313.15 K	9.09	8.7	8.2	7.7	7.17	6.63	6.07	5.49	4.88
318.15 K	7.24	6.97	6.64	6.29	5.94	5.56	5.18	4.78	4.37

— the CheMixHub viscosity set
